Assays:
[1] = target: T1, Amine oxidase [flavin-containing] A (Homo sapiens, UniProt P21397); type: functional
T1 sequence (P21397 whole entry): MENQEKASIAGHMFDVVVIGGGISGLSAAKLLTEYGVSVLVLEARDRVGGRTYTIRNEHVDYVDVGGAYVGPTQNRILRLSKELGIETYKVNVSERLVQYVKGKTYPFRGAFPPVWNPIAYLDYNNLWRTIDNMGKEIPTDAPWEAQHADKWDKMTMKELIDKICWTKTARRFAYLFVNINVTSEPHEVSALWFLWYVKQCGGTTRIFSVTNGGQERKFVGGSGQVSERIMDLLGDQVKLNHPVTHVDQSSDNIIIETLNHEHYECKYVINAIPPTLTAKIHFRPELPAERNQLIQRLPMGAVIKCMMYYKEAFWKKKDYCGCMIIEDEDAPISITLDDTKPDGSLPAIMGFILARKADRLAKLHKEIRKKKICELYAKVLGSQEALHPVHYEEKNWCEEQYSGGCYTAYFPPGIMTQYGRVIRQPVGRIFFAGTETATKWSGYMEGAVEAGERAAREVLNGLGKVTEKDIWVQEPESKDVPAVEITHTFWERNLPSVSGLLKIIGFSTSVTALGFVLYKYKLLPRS

Acetylcholinesterase = Acetylcholinesterase (Homo sapiens, UniProt P22303); type: functional
Acetylcholinesterase, sequence (P22303 whole entry): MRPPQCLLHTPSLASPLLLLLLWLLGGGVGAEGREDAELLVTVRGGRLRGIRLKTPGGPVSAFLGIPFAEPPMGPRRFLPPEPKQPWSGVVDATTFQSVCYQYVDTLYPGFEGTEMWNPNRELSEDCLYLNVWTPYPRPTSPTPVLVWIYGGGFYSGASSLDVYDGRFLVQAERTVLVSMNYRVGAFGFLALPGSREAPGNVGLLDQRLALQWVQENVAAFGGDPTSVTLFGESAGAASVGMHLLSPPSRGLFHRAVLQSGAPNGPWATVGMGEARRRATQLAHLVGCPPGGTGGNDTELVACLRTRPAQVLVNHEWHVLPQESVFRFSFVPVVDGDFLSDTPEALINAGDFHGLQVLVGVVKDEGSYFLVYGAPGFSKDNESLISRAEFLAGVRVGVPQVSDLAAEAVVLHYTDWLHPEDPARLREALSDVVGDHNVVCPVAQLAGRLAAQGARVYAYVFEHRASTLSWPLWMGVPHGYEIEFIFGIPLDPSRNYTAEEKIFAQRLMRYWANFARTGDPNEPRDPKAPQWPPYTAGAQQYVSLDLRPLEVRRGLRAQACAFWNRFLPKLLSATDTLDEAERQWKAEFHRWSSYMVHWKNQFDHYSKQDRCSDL

Progesterone receptor = target: T2, Progesterone receptor (Homo sapiens, UniProt P06401)
T2 sequence (P06401 whole entry): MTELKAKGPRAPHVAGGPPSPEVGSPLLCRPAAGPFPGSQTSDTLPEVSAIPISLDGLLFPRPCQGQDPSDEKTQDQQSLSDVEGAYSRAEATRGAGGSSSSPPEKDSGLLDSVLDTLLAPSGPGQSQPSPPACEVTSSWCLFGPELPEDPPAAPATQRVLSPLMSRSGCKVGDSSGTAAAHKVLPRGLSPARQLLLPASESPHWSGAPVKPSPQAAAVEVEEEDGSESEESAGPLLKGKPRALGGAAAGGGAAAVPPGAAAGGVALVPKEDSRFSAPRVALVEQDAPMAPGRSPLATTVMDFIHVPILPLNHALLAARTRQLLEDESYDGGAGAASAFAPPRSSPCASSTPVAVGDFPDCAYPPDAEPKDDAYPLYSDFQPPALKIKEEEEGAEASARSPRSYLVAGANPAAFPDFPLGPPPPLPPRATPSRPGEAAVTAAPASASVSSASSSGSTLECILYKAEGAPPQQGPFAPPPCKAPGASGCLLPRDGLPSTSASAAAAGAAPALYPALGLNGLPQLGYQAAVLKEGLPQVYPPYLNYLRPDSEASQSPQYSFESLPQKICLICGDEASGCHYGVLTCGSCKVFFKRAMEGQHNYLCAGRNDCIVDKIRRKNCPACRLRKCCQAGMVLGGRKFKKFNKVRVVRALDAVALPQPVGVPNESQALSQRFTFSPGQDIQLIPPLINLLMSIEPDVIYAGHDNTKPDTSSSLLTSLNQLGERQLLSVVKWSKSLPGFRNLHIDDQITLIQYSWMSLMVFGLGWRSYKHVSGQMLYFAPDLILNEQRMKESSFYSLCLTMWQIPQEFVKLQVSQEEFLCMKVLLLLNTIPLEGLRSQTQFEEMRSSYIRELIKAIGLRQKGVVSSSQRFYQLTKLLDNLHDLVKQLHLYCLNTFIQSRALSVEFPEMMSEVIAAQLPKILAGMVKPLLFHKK

[2] = target: T3, 5-hydroxytryptamine receptor 1A (Homo sapiens, UniProt P08908)
T3 sequence (P08908 whole entry): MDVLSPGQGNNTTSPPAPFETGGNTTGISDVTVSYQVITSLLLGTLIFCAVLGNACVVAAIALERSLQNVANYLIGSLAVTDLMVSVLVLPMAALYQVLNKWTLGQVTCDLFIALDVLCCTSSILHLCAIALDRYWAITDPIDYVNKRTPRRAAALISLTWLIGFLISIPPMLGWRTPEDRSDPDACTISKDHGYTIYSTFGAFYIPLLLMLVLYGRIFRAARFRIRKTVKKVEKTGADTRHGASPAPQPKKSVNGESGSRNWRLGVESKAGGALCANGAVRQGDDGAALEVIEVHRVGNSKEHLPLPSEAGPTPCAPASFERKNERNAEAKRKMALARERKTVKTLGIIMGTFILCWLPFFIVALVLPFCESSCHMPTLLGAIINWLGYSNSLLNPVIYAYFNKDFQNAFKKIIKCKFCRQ

[3] = target: Sodium-dependent noradrenaline transporter (Homo sapiens, UniProt P23975)
Sodium-dependent noradrenaline transporter, sequence (P23975 whole entry): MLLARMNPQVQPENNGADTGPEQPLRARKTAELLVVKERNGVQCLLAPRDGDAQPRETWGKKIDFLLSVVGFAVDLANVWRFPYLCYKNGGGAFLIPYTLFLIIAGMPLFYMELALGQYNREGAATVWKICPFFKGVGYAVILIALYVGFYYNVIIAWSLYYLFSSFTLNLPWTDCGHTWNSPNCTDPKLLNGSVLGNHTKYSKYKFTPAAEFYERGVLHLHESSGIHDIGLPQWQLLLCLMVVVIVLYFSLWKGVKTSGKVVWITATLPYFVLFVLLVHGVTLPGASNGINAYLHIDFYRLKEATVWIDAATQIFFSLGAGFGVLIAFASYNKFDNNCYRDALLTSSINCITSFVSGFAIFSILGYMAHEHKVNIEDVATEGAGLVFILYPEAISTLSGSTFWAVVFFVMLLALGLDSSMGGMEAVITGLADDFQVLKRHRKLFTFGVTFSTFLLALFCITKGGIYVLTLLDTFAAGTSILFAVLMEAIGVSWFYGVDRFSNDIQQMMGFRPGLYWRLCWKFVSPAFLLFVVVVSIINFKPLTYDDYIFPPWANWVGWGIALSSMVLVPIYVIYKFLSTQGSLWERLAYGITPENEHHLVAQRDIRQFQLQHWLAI

[4] = target: Sodium-dependent dopamine transporter (Homo sapiens, UniProt Q01959)
Sodium-dependent dopamine transporter, sequence (Q01959 whole entry): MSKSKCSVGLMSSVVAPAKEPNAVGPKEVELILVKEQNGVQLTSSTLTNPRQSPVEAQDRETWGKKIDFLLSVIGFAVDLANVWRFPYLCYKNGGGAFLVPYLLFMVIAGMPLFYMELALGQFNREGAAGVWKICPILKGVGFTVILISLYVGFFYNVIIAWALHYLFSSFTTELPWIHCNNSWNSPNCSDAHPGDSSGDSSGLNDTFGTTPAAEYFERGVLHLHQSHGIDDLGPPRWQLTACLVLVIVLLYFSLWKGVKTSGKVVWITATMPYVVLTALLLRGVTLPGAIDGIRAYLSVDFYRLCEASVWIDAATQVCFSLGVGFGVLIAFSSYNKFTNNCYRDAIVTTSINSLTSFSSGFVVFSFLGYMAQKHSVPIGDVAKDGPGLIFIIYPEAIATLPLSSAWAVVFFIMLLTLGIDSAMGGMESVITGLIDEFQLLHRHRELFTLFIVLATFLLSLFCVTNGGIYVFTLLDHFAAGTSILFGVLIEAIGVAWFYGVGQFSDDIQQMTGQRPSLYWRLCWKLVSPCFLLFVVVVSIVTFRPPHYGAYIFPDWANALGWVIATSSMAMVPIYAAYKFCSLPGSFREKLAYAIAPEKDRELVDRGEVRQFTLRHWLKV

[5] = target: 3',5'-cyclic-AMP phosphodiesterase 4A (Homo sapiens, UniProt P27815); type: functional
3',5'-cyclic-AMP phosphodiesterase 4A, sequence (P27815 whole entry): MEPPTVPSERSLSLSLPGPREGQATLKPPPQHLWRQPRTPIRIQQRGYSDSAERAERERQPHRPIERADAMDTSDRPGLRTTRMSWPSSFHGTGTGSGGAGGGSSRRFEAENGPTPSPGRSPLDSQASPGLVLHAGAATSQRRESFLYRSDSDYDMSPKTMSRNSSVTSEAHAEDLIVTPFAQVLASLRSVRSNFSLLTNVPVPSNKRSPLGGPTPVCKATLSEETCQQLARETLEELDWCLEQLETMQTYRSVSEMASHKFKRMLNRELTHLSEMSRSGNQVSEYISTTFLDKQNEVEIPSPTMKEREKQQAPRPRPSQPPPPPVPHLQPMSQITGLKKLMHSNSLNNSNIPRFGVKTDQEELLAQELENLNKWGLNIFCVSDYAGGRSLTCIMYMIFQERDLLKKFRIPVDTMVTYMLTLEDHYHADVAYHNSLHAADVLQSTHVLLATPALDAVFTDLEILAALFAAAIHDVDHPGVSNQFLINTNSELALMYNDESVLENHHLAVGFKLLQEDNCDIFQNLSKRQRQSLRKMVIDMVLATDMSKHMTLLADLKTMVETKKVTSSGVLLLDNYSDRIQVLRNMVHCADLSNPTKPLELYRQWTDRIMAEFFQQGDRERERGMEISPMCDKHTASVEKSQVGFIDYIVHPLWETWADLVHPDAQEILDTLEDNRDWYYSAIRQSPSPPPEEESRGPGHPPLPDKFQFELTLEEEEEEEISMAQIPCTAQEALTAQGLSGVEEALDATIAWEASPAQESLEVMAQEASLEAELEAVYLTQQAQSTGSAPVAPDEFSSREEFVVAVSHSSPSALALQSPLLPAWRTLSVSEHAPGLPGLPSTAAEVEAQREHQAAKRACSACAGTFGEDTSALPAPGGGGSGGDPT

[6] = target: T4, Alpha-1A adrenergic receptor (Homo sapiens, UniProt P35348); type: functional, cell-based
T4 sequence (P35348 whole entry): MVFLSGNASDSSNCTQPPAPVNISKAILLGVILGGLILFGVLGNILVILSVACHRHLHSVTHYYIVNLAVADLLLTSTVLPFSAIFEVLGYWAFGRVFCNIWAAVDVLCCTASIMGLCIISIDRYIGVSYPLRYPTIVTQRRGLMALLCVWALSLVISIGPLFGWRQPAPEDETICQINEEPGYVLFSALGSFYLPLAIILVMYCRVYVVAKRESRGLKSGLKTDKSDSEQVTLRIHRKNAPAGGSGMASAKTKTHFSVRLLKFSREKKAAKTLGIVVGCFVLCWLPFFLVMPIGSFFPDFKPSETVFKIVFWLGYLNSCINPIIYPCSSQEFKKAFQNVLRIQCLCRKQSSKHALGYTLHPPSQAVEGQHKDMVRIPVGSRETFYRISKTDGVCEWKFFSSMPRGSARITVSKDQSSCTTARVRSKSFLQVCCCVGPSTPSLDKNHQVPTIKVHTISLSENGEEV
Also: assay procedure not described here.

O=C(O)c1cccc(-c2noc(-c3ccccc3F)n2)c1
AC50 [1]: > 30 µM
AC50 (Acetylcholinesterase): > 30 µM
AC50 (Progesterone receptor): > 30 µM
AC50 [2]: > 30 µM
AC50 [3]: > 30 µM
AC50 [4]: > 30 µM
AC50 [5]: > 30 µM
AC50 [6]: > 30 µM

CO/N=C(\C(=O)N[C@@H]1C(=O)N2C(C(=O)OCOC(=O)C(C)(C)C)=C(C)CS[C@H]12)c1csc(N)n1
AC50 [1]: > 30 µM
AC50 (Acetylcholinesterase): > 30 µM
AC50 (Progesterone receptor): > 30 µM
AC50 [2]: > 30 µM
AC50 [3]: > 30 µM
AC50 [4]: > 30 µM
AC50 [5]: > 30 µM

Cc1c(O)cccc1C(=O)N[C@@H](CSc1ccccc1)[C@H](O)CN1C[C@H]2CCCC[C@H]2C[C@H]1C(=O)NC(C)(C)C
AC50 [1]: > 30 µM
AC50 (Acetylcholinesterase): > 30 µM
AC50 (Progesterone receptor): > 30 µM
AC50 [2]: > 30 µM
AC50 [3]: 18.2 µM
AC50 [4]: 23.1 µM
AC50 [5]: > 30 µM
AC50 [6]: > 30 µM

Nc1ccc(C(=O)O)cc1 [AMINOBENZOIC ACID]
AC50 [1]: > 30 µM
AC50 (Acetylcholinesterase): > 30 µM
AC50 (Progesterone receptor): > 30 µM
AC50 [2]: > 30 µM
AC50 [3]: > 30 µM
AC50 [4]: > 30 µM
AC50 [5]: > 30 µM
AC50 [6]: > 30 µM

CCCC1C(=O)N2C(N(C)C)=Nc3ccc(C)cc3N2C1=O (stereo not given) [APAZONE]
AC50 [1]: > 30 µM
AC50 (Acetylcholinesterase): > 30 µM
AC50 (Progesterone receptor): > 30 µM
AC50 [2]: > 30 µM
AC50 [3]: > 30 µM
AC50 [4]: > 30 µM
AC50 [5]: > 30 µM
AC50 [6]: > 30 µM

CCS(=O)(=O)N1CC(CC#N)(n2cc(-c3ncnc4[nH]ccc34)cn2)C1 [BARICITINIB]
AC50 [1]: > 30 µM
AC50 (Acetylcholinesterase): > 10 µM
AC50 (Progesterone receptor): > 30 µM
AC50 [2]: > 30 µM
AC50 [3]: > 30 µM
AC50 [4]: > 30 µM
AC50 [5]: > 30 µM
AC50 [6]: > 30 µM

O=C1CN=C(c2ccccc2)c2c(sc3c2CCCC3)N1 [BENTAZEPAM]
AC50 [1]: > 30 µM
AC50 (Acetylcholinesterase): > 30 µM
AC50 (Progesterone receptor): 14.8 µM
AC50 [2]: 1.55 µM
AC50 [3]: > 30 µM
AC50 [4]: > 30 µM
AC50 [5]: 15.7 µM
AC50 [6]: > 30 µM

O=C(Cn1ccnc1[N+](=O)[O-])NCc1ccccc1 [BENZNIDAZOLE]
AC50 [1]: > 30 µM
AC50 (Acetylcholinesterase): > 30 µM
AC50 (Progesterone receptor): > 30 µM
AC50 [2]: > 30 µM
AC50 [3]: > 30 µM
AC50 [4]: > 30 µM
AC50 [5]: > 30 µM

O=C(O)CCCN1CCC(O[C@@H](c2ccc(Cl)cc2)c2ccccn2)CC1 [BEPOTASTINE]
AC50 [1]: > 30 µM
AC50 (Acetylcholinesterase): > 30 µM
AC50 (Progesterone receptor): > 30 µM
AC50 [2]: > 30 µM
AC50 [3]: > 30 µM
AC50 [4]: > 30 µM
AC50 [5]: > 30 µM
AC50 [6]: > 30 µM

CN(Cc1cc(Br)cc(Br)c1N)C1CCCCC1 [BROMHEXINE]
AC50 [1]: > 30 µM
AC50 (Acetylcholinesterase): > 30 µM
AC50 (Progesterone receptor): > 30 µM
AC50 [2]: > 30 µM
AC50 [3]: 22 µM
AC50 [4]: 12.3 µM
AC50 [5]: 26.3 µM
AC50 [6]: > 30 µM

CCCCN(CCCC)CCCOC(=O)c1ccc(N)cc1 [BUTACAINE]
AC50 [1]: > 30 µM
AC50 (Acetylcholinesterase): > 30 µM
AC50 [2]: 2.97 µM
AC50 [3]: > 30 µM
AC50 [4]: 2 µM
AC50 [5]: > 30 µM
AC50 [6]: > 30 µM

CCCC[N+]1(C)[C@@H]2C[C@@H](OC(=O)[C@H](CO)c3ccccc3)C[C@H]1[C@@H]1O[C@@H]12 (stereo not given in full) [BUTYLSCOPOLAMINE]
AC50 [1]: > 30 µM
AC50 (Acetylcholinesterase): > 30 µM
AC50 (Progesterone receptor): > 30 µM
AC50 [2]: > 30 µM
AC50 [3]: > 30 µM
AC50 [4]: > 30 µM
AC50 [5]: > 30 µM
AC50 [6]: > 30 µM

NCc1ccccc1CC(=O)N[C@@H]1C(=O)N2C(C(=O)O)=C(CSc3nnnn3CC(=O)O)CS[C@H]12 [CEFORANIDE]
AC50 [1]: > 30 µM
AC50 (Acetylcholinesterase): > 30 µM
AC50 (Progesterone receptor): > 30 µM
AC50 [2]: > 30 µM
AC50 [3]: > 30 µM
AC50 [4]: > 30 µM
AC50 [5]: > 30 µM
AC50 [6]: > 30 µM

COCC1=C(C(=O)OC(C)OC(=O)OC(C)C)N2C(=O)[C@@H](NC(=O)/C(=N\OC)c3csc(N)n3)[C@H]2SC1 (stereo not given in full) [CEFPODOXIME PROXETIL]
AC50 [1]: > 30 µM
AC50 (Acetylcholinesterase): > 30 µM
AC50 (Progesterone receptor): > 30 µM
AC50 [2]: > 30 µM
AC50 [3]: > 30 µM
AC50 [4]: > 30 µM
AC50 [5]: > 30 µM

O=C(c1ccc(F)c(F)c1Nc1ccc(I)cc1F)N1CC(O)([C@@H]2CCCCN2)C1 [COBIMETINIB]
AC50 [1]: > 30 µM
AC50 (Acetylcholinesterase): > 30 µM
AC50 (Progesterone receptor): > 30 µM
AC50 [2]: > 30 µM
AC50 [3]: 16.9 µM
AC50 [4]: 7.3 µM
AC50 [5]: > 30 µM
AC50 [6]: > 30 µM

NS(=O)(=O)c1cc2c(cc1Cl)NC(CC1CCCC1)NS2(=O)=O (stereo not given) [CYCLOPENTHIAZIDE]
AC50 [1]: > 30 µM
AC50 (Acetylcholinesterase): > 30 µM
AC50 (Progesterone receptor): > 30 µM
AC50 [2]: > 30 µM
AC50 [3]: > 30 µM
AC50 [4]: > 30 µM
AC50 [5]: > 30 µM

N/N=c1/cc2c(n[nH]1)CCN(C(=O)c1ccccc1)C2 [ENDRALAZINE]
AC50 [1]: > 30 µM
AC50 (Acetylcholinesterase): > 30 µM
AC50 (Progesterone receptor): > 30 µM
AC50 [2]: > 30 µM
AC50 [3]: > 30 µM
AC50 [4]: > 30 µM
AC50 [5]: > 30 µM

CC(C)=CCC1C(=O)N(c2ccccc2)N(c2ccccc2)C1=O [FEPRAZONE]
AC50 [1]: > 30 µM
AC50 (Acetylcholinesterase): > 30 µM
AC50 (Progesterone receptor): > 30 µM
AC50 [2]: > 30 µM
AC50 [3]: > 30 µM
AC50 [4]: > 30 µM
AC50 [5]: > 30 µM

CN1C(=O)N(C)C2C1N(C)C(=O)N2C (stereo not given) [MEBICAR]
AC50 [1]: > 30 µM
AC50 (Acetylcholinesterase): > 30 µM
AC50 (Progesterone receptor): > 30 µM
AC50 [2]: > 30 µM
AC50 [3]: > 30 µM
AC50 [4]: > 30 µM
AC50 [5]: > 30 µM

CC(=O)O[C@]1(C(C)=O)CC[C@H]2[C@@H]3C[C@H](C)C4=CC(=O)CC[C@]4(C)[C@H]3CC[C@@]21C [MEDROXYPROGESTERONE ACETATE]
AC50 [1]: > 30 µM
AC50 (Acetylcholinesterase): > 30 µM
AC50 [2]: > 30 µM
AC50 [3]: > 30 µM
AC50 [4]: > 30 µM
AC50 [5]: > 30 µM
AC50 [6]: > 30 µM

Nc1ccc(/N=N/c2ccccc2)c(N)n1 [PHENAZOPYRIDINE]
AC50 [1]: > 30 µM
AC50 (Acetylcholinesterase): > 3 µM
AC50 (Progesterone receptor): > 30 µM
AC50 [2]: > 30 µM
AC50 [3]: 3.85 µM
AC50 [4]: 4.71 µM
AC50 [5]: 22.5 µM

COc1cc2c(cc1OC)[C@H]1C[C@@H](OC(=O)[C@@H](N)C(C)C)[C@H](CC(C)C)CN1CC2 [VALBENAZINE]
AC50 [1]: > 30 µM
AC50 (Acetylcholinesterase): > 30 µM
AC50 (Progesterone receptor): > 30 µM
AC50 [3]: > 30 µM
AC50 [4]: > 30 µM
AC50 [5]: > 30 µM
AC50 [6]: > 30 µM
